Columns and labels:
Jasmonate (JA) [1] = test: Jasmonate (JA) concentration in leaves of treated plants, GC-MS/MS; assay type: in vivo, barley; settings: 0 hours
Jasmonate (JA) [2] = test: as above; assay type: in vivo, barley
Description: (§1) Barley plants (cv. Baronesse) were grown under the conditions described in Example 1 and treated by spray application with safener isoxadifen-ethyl (S 3). The application rates were chosen as follows:
(§2) (1) 30 [g a.i./ha]; (2) 150 [g a.i./ha]; (3) blank formulation (no active ingredient)
The plant leaves were harvested at different points in time after the treatment (h=hours), viz. after 1 h, 2 h, 4 h, 6 h, 12 h, 24 h and 48 h. All samples were designed in each case as replications of 3 pots.
(§3) The octadecanoates and jasmonates were processed from the leaves following a procedure described in the literature (Müller A, Düchting P and Weiler E W (2002)), A multiplex GC-MS/MS technique for the sensitive and quantitative single-run analysis of acidic phytohormones and related compounds, and its application to Arabidopsis thaliana. Planta, 216, 44-56).
(§4) 300 mg of plant material were extracted for each measuring point.
(§5) 50 pmol [^13C]2-JA and 100 pmol [17,17,17,18,18-^2H]-cis-OPDA were applied as internal standards. The extracts were purified via aminopropyl anion-exchange chromatography in miniature solid-phase exchanger columns which had been prepared in-house.
(§6) The results are shown in Tables 3a to 3d, the values shown being in each case means of the 3 applications.

Oxophytodienoate (OPDA) = Oxophytodienoate (OPDA) concentration in leaves of treated plants, GC-MS/MS; assay type: in vivo, barley
Description: as §1, §2
[…] All samples were designed in each case as replications of 3 pots.
as §3, §4, §5, §6

Rhopalosiphum padi = test: Repellent effect of safener-treated plants on phytopathogenic insects; assay type: in vivo; settings: barley sprayed with 150 g a.i./ha, infested 6 h or 24 h after application, average
Description: Barley plants (cv. Baronesse) were grown as described in Example 1 and, after 10 days, treated by spray application with 150 g a.i./ha of isoxadifen-ethyl (S 3) or blank formulation. The experiments were carried out in replications of in each case 10 pots.
6 hours or 24 hours after the substance had been applied, all pots were infested uniformly with a population of the phytopathogenic aphid Rhopalosiphum padi. The experiments were evaluated after 7 days and 14 days by counting the animals on the leaves.

`CCOC(=O)C1=NOC(c2ccccc2)(c2ccccc2)C1` [S3, Isoxadifen-ethyl] was tested, and the “Jasmonate (JA) concentration” value (Jasmonate (JA) [1]; 30 g a.i/ha) was 140 pmol/g leaf tissue, the “Jasmonate (JA) concentration” value (Jasmonate (JA) [1]; 150 g a.i./ha) was 140 pmol/g leaf tissue and the “Jasmonate (JA) concentration” value (Jasmonate (JA) [2]; 30 g a.i/ha, 1 hour) was 600 pmol/g leaf tissue. The “Jasmonate (JA) concentration” value (Jasmonate (JA) [2]; 30 g a.i/ha, 2 hours) was 320 pmol/g leaf tissue, the “Jasmonate (JA) concentration” value (Jasmonate (JA) [2]; 30 g a.i/ha, 4 hours) was 790 pmol/g leaf tissue and the “Jasmonate (JA) concentration” value (Jasmonate (JA) [2]; 30 g a.i/ha, 6 hours) was 620 pmol/g leaf tissue. The “Jasmonate (JA) concentration” value (Jasmonate (JA) [2]; 150 g a.i./ha, 1 hour) was 290 pmol/g leaf tissue, the “Jasmonate (JA) concentration” value (Jasmonate (JA) [2]; 150 g a.i./ha, 2 hours) was 280 pmol/g leaf tissue and the “Jasmonate (JA) concentration” value (Jasmonate (JA) [2]; 150 g a.i./ha, 4 hours) was 270 pmol/g leaf tissue. For the same molecule, the “Jasmonate (JA) concentration” value (Jasmonate (JA) [2]; 150 g a.i./ha, 6 hours) was 275 pmol/g leaf tissue, the “Jasmonate (JA) concentration” value (Jasmonate (JA) [2]; 150 g a.i./ha, 12 hours) was 155 pmol/g leaf tissue and the “Jasmonate (JA) concentration” value (Jasmonate (JA) [2]; 150 g a.i./ha, 24 hours) was 265 pmol/g leaf tissue. For the same molecule, the “Jasmonate (JA) concentration” value (Jasmonate (JA) [2]; 150 g a.i./ha, 48 hours) was 320 pmol/g leaf tissue, the “Increase in JA concentration relative to blank formulation samples” value (Jasmonate (JA) [2]; maximum over rates and times) was no more than 5 times and the “Jasmonate (JA) concentrations, range over the experiment” value (Jasmonate (JA) [2]; summary of Tables 3c, 3d, all rates and times) was 70-800 pmol/g leaf tissue. The “Oxophytodienoate (OPDA) concentration” value (Oxophytodienoate (OPDA); 30 g a.i/ha, 0 hours) was 2500 pmol/g leaf tissue, the “Oxophytodienoate (OPDA) concentration” value (Oxophytodienoate (OPDA); 30 g a.i/ha, 1 hour) was 6500 pmol/g leaf tissue and the “Oxophytodienoate (OPDA) concentration” value (Oxophytodienoate (OPDA); 30 g a.i/ha, 2 hours) was 3750 pmol/g leaf tissue. For the same molecule, the “Oxophytodienoate (OPDA) concentration” value (Oxophytodienoate (OPDA); 30 g a.i/ha, 4 hours) was 7000 pmol/g leaf tissue, the “Oxophytodienoate (OPDA) concentration” value (Oxophytodienoate (OPDA); 30 g a.i/ha, 6 hours) was 9000 pmol/g leaf tissue and the “Oxophytodienoate (OPDA) concentration” value (Oxophytodienoate (OPDA); 150 g a.i./ha, 0 hours) was 2600 pmol/g leaf tissue. The “Oxophytodienoate (OPDA) concentration” value (Oxophytodienoate (OPDA); 150 g a.i./ha, 1 hour) was 2800 pmol/g leaf tissue, the “Oxophytodienoate (OPDA) concentration” value (Oxophytodienoate (OPDA); 150 g a.i./ha, 2 hours) was 1800 pmol/g leaf tissue and the “Oxophytodienoate (OPDA) concentration” value (Oxophytodienoate (OPDA); 150 g a.i./ha, 4 hours) was 2200 pmol/g leaf tissue. For the same molecule, the “Oxophytodienoate (OPDA) concentration” value (Oxophytodienoate (OPDA); 150 g a.i./ha, 6 hours) was 5100 pmol/g leaf tissue, the “Oxophytodienoate (OPDA) concentration” value (Oxophytodienoate (OPDA); 150 g a.i./ha, 12 hours) was 2400 pmol/g leaf tissue and the “Oxophytodienoate (OPDA) concentration” value (Oxophytodienoate (OPDA); 150 g a.i./ha, 24 hours) was 5100 pmol/g leaf tissue. The “Oxophytodienoate (OPDA) concentration” value (Oxophytodienoate (OPDA); 150 g a.i./ha, 48 hours) was 1900 pmol/g leaf tissue, the “Increase in OPDA concentration relative to blank formulation samples” value (Oxophytodienoate (OPDA); maximum over rates and times) was no more than 5 times and the “Oxophytodienoate (OPDA) concentrations, range over the experiment” value (Oxophytodienoate (OPDA); summary of Tables 3a, 3b, all rates and times) was 1800-9000 pmol/g leaf tissue. For the same molecule, the “Aphid populations less than the controls” value (Rhopalosiphum padi; after 7 days) was 50% and the “Aphid populations less than the controls” value (Rhopalosiphum padi; after 14 days) was 70%.

— patent US20070265164A1, “Active Substances for Increasing Pathogenic Defense in Plants and Methods for the Detection Thereof” (Bayer Cropscience GmbH, priority 2004, published 2007)
